Drawing on PubChem BioAssay AID182 (DTP/NCI, 2004), this text covers T/C for twelve compounds.

Inconclusive results and toxic doses are left out.

The subject of the test is BDF1 mice, P388/ADR leukemia ip, median survival T/C. Briefly: NCI In Vivo Anticancer Drug Screen. Data for tumor model P388 Leukemia resistant to Adriamycin; NSC 123127, Developed at Scr 06 and 41 (intraperitoneal) in B6D2F1 (BDF1) mice. Conditions: endpoint: median survival time, higher = longer survival. Here is the method: The antitumor activity of compounds was measured in mice bearing transplantable tumors. Survival or tumor size were measured and the results are expressed as the measurement made in the treated group (T) divided by the measurement made in the vehicle treated control group (C). The tumor model used in this assay is P388 Leukemia resistant to Adriamycin; NSC 123127, Developed at Scr 06 and 41 (intraperitoneal) in B6D2F1 (BDF1) mice

Setting [1] is: dose: 432.0 micrograms/kg/injection, schedule: Q04DX003 (ip), vehicle: saline.
[2] abbreviates: dose: 720.0 micrograms/kg/injection, schedule: Q04DX003 (ip), vehicle: saline.

With `COc1cc(O)c2c(c1)C(=O)c1cc3c(c(O)c1C2=O)C(OC1OC(C)C(O)C(O)C1OC)C(OC)C(C)(O)C3=O` (stereo not given), the T/C runs as follows: (dose: 25.9 mg/kg/injection, schedule: Q01DX009 (ip), vehicle: Klucel (hydroxypropylcellulose) (HPC)) 96 % of control; (dose: 43.2 mg/kg/injection, schedule: Q01DX009 (ip), vehicle: Klucel (hydroxypropylcellulose) (HPC)) 96 % of control; (dose: 72.0 mg/kg/injection, schedule: Q01DX009 (ip), vehicle: Klucel (hydroxypropylcellulose) (HPC)) 99 % of control; (dose: 108.0 mg/kg/injection, schedule: Q04DX003 (ip), vehicle: Klucel (hydroxypropylcellulose) (HPC)) 100 % of control; (dose: 120.0 mg/kg/injection, schedule: Q01DX009 (ip), vehicle: Klucel (hydroxypropylcellulose) (HPC)) 103 % of control; (dose: 180.0 mg/kg/injection, schedule: Q04DX003 (ip), vehicle: Klucel (hydroxypropylcellulose) (HPC)) 105 % of control.

Turning to `CC1CC(C)(O)CC(C(O)CC2CC(=O)NC(=O)C2)C1=O` (stereo not given), the T/C is 120 % of control (dose: 0.72 mg/kg/injection, schedule: Q04DX003 (ip), vehicle: saline); 124 % of control (dose: 0.78 mg/kg/injection, schedule: Q04DX003 (ip), vehicle: saline); 91 % of control (dose: 2.16 mg/kg/injection, schedule: Q04DX003 (ip), vehicle: saline); 103 % of control (dose: 173.0 micrograms/kg/injection, schedule: Q01DX009 (ip), vehicle: saline); 112 % of control (dose: 288.0 micrograms/kg/injection, schedule: Q01DX009 (ip), vehicle: saline); 92 % of control (dose: 480.0 micrograms/kg/injection, schedule: Q01DX009 (ip), vehicle: saline).

Regarding `COc1cc2c[n+](C)c3c4cc5c(cc4ccc3c2cc1OC)OCO5`, the T/C by setting is: (dose: 28.8 mg/kg/injection, schedule: Q04DX003 (ip), vehicle: Klucel (hydroxypropylcellulose) (HPC)) 123 % of control; (dose: 48.0 mg/kg/injection, schedule: Q04DX003 (ip), vehicle: Klucel (hydroxypropylcellulose) (HPC)) 105 % of control; (dose: 55.0 mg/kg/injection, schedule: Q04DX003 (ip), vehicle: other) 107 % of control; (dose: 80.0 mg/kg/injection, schedule: Q04DX003 (ip), vehicle: Klucel (hydroxypropylcellulose) (HPC)) 124 % of control; (dose: 92.0 mg/kg/injection, schedule: Q04DX003 (ip), vehicle: other) 106 % of control.

With `CCC1(O)CC2CN(CCc3c([nH]c4ccccc34)C(C(=O)OC)(c3cc4c(cc3OC)N(C)C3C(O)(C(=O)NCCSSCCNC(=O)C5(O)C(O)C6(CC)C=CCN7CCC8(c9cc(C%10(C(=O)OC)CC%11CN(CCc%12c%10[nH]c%10ccccc%12%10)CC(O)(CC)C%11)c(OC)cc9N(C)C58)C76)C(O)C5(CC)C=CCN6CCC43C65)C2)C1` (stereo not given), the T/C under setting [1] was 111 % of control; the T/C under setting [2] was 124 % of control; the T/C (dose: 2000.0 micrograms/kg/injection, schedule: Q04DX003 (ip), vehicle: saline) was 116 % of control.

`O=c1[nH]cc(F)c(=O)[nH]1`: the T/C reads like this: (dose: 21.6 mg/kg/injection, schedule: Q04DX003 (ip), vehicle: saline) 150 % of control; (dose: 36.0 mg/kg/injection, schedule: Q04DX003 (ip), vehicle: saline) 174 % of control; (dose: 60.0 mg/kg/injection, schedule: Q04DX003 (ip), vehicle: saline) 192 % of control.

`COc1cc([C@@H]2c3cc4c(cc3[C@@H](OC3OC5COC(C)OC5C(O)C3O)[C@H]3COC(=O)[C@H]23)OCO4)cc(OC)c1O` (stereo not given in full): the T/C by setting is: (dose: 18.0 mg/kg/injection, schedule: Q04DX003 (ip), vehicle: Klucel (hydroxypropylcellulose) (HPC)) 110 % of control; (dose: 30.0 mg/kg/injection, schedule: Q04DX003 (ip), vehicle: Klucel (hydroxypropylcellulose) (HPC)) 119 % of control; (dose: 50.0 mg/kg/injection, schedule: Q04DX003 (ip), vehicle: Klucel (hydroxypropylcellulose) (HPC)) 112 % of control.

With `N[C@@H](Cc1ccc(N(CCCl)CCCl)cc1)C(=O)O`, the T/C runs as follows: (dose: 3.6 mg/kg/injection, schedule: Q01DX001 (ip), vehicle: saline) 313 % of control; (dose: 6.0 mg/kg/injection, schedule: Q01DX001 (ip), vehicle: saline) 507 % of control; (dose: 10.0 mg/kg/injection, schedule: Q01DX001 (ip), vehicle: saline) 507 % of control; (dose: 16.7 mg/kg/injection, schedule: Q01DX001 (ip), vehicle: saline) 406 % of control.

Consider `COC1=C(N)C(=O)c2nc(-c3nc(C(=O)O)c(C)c(-c4ccc(OC)c(OC)c4O)c3N)ccc2C1=O`, for which the T/C by setting is: (dose: 144.0 micrograms/kg/injection, schedule: Q04DX003 (ip), vehicle: alkali diluted with saline) 120 % of control; (dose: 240.0 micrograms/kg/injection, schedule: Q04DX003 (ip), vehicle: alkali diluted with saline) 120 % of control; (dose: 400.0 micrograms/kg/injection, schedule: Q04DX003 (ip), vehicle: alkali diluted with saline) 122 % of control; (dose: 667.0 micrograms/kg/injection, schedule: Q04DX003 (ip), vehicle: alkali diluted with saline) 121 % of control.

In the case of `O=C1N[C@@H]([C@H]2CC[C@H](Cl)CN2)C(=O)N[C@H]1[C@H]1CC[C@H](Cl)CN1`, the T/C was 158 % of control (dose: 1.44 mg/kg/injection, schedule: Q04DX003 (ip), vehicle: water); 213 % of control (dose: 2.4 mg/kg/injection, schedule: Q04DX003 (ip), vehicle: water); 221 % of control (dose: 4.0 mg/kg/injection, schedule: Q04DX003 (ip), vehicle: water); 122 % of control (dose: 6.67 mg/kg/injection, schedule: Q04DX003 (ip), vehicle: water).

Consider `CCCCC(=O)OCC(=O)[C@]1(O)Cc2c(O)c3c(c(O)c2[C@@H](OC2CC(NC(=O)C(F)(F)F)C(O)C(C)O2)C1)C(=O)c1c(OC)cccc1C3=O` (stereo not given in full), for which the T/C runs as follows: (dose: 13.0 mg/kg/injection, schedule: Q01DX004 (ip), vehicle: saline with Tween-80) 105 % of control; (dose: 15.1 mg/kg/injection, schedule: Q04DX003 (ip), vehicle: other) 120 % of control; (dose: 21.0 mg/kg/injection, schedule: Q01DX004 (ip), vehicle: saline with Tween-80) 113 % of control; (dose: 25.2 mg/kg/injection, schedule: Q04DX003 (ip), vehicle: other) 119 % of control; (dose: 42.0 mg/kg/injection, schedule: Q04DX003 (ip), vehicle: other) 122 % of control; (dose: 70.0 mg/kg/injection, schedule: Q04DX003 (ip), vehicle: other) 155 % of control.

Consider `CC[C@]1(O)C[C@H]2CN(CCc3c([nH]c4ccccc34)[C@@](C(=O)OC)(c3cc4c(cc3OC)N(C=O)[C@H]3[C@@](O)(C(=O)OC)[C@H](OC(C)=O)[C@]5(CC)C=CCN6CC[C@]43[C@@H]65)C2)C1`, for which the T/C reads like this: (dose: 0.5 mg/kg/injection, schedule: Q04DX003 (ip), vehicle: saline) 92 % of control; (dose: 0.65 mg/kg/injection, schedule: Q04DX003 (ip), vehicle: saline) 111 % of control; (dose: 1.0 mg/kg/injection, schedule: Q04DX003 (ip), vehicle: saline) 92 % of control; (dose: 1.8 mg/kg/injection, schedule: Q04DX003 (ip), vehicle: saline) 95 % of control; (dose: 3.0 mg/kg/injection, schedule: Q04DX003 (ip), vehicle: saline) 87 % of control; (dose: 389.0 micrograms/kg/injection, schedule: Q04DX003 (ip), vehicle: saline) 109 % of control. In addition, the T/C is, setting by setting: under setting [1], 113 % of control; (dose: 648.0 micrograms/kg/injection, schedule: Q04DX003 (ip), vehicle: saline) 112 % of control; under setting [2], 107 % of control; (dose: 1080.0 micrograms/kg/injection, schedule: Q04DX003 (ip), vehicle: saline) 110 % of control; (dose: 1200.0 micrograms/kg/injection, schedule: Q04DX003 (ip), vehicle: saline) 101 % of control; (dose: 1800.0 micrograms/kg/injection, schedule: Q04DX003 (ip), vehicle: saline) 107 % of control.

With `CC1OC(OC2CC(O)(C(=O)CO)Cc3c(O)c4c(c(O)c32)C(=O)c2ccccc2C4=O)CC(N)C1O` (stereo not given), the T/C is, setting by setting: (dose: 216.0 micrograms/kg/injection, schedule: Q04DX003 (ip), vehicle: water) 100 % of control; (dose: 360.0 micrograms/kg/injection, schedule: Q04DX003 (ip), vehicle: water) 102 % of control; (dose: 600.0 micrograms/kg/injection, schedule: Q04DX003 (ip), vehicle: water) 101 % of control; (dose: 1000.0 micrograms/kg/injection, schedule: Q04DX003 (ip), vehicle: water) 99 % of control.
